Each structure is given as a SMILES string.

In the first test the test system is parasite. The test can be described thus: Parasite LDH growth assay (Parasite Assay), antiparasite potency. Type of test: cell-based. The following applies: 72 h, parasite LDH growth assay, ring stage parasites, 72 hours incubation at 37° C.; read-out: EC50. As for the experimental part:
Assessing Antiparasite Potency in a Parasite LDH Growth Assay (Parasite Assay)
The parasite stock was maintained at 4% haematocrit in RPMI-Hepes media buffered with sodium bicarbonate and supplemented with 5% heat inactivated human serum and 0.5% albumax.
On the day of assay set up, a blood smear of the parasite culture was Giemsa stained and counted. The parasitemia was adjusted to 0.7% rings and the haematocrit was diluted to 2% in RPMI-Hepes media buffered with sodium bicarbonate and supplemented with 5% heat inactivated human serum and 0.5% albumax. 30 ul of diluted parasites are then added into 10 ul of media+compound in pre-prepared Greiner TC assay plates. Parasite assay plates were placed in gassed humidified boxes in single layer and allowed to incubate at 37° C. for 72 hours. After 72 hours growth, assay plates are sealed with parafilm and frozen flat, in single file at −80° C. overnight. On the following day, assay plates are allowed to thaw at room temperature for 4 hours to which an LDH assay is performed to measure parasite growth.
Usually EC50 stands for the concentration that produces a half-maximal response. For `CCC1(CC)CC(=O)N([C@@H]2C[C@@H](OC)c3ccc(C(=O)N[C@@H]4c5ccccc5OC(C)(C)[C@H]4O)cc32)C(=N)N1` [Example 236, (1R,3R)-3-(4,4-diethyl-2-imino-6-oxo-hexahydropyrimidin-1-yl)-N-[(3S,4R)-3-hydroxy-2,2-dimethyl-chroman-4-yl]-1-methoxy-indane-5-carboxamide], the EC50 stood at 900 pM.

For the compound `CCC1(CC)CC(=O)N([C@@H]2CCOc3ccc(C(=O)N[C@@H]4c5ccccc5OC(C)(C)[C@H]4O)nc32)C(=N)N1` [Example 30A, (R)-4-(4,4-diethyl-2-imino-6-oxotetrahydropyrimidin-1(2H)-yl)-N-((3S,4R)-3-hydroxy-2,2-dimethylchroman-4-yl)-3,4-dihydro-2H-pyrano[3,2-b]pyridine-6-carboxamide], the half-maximal effective concentration (EC50) was 800 pM.

Turning to `CCC1(CC)CC(=O)N([C@H]2c3cc(C(=O)N[C@@H]4c5ccccc5C[C@@]4(C)O)ccc3OC[C@H]2COC)C(=N)N1` [Example 235, (3R,4R)-4-(4,4-diethyl-2-imino-6-oxo-hexahydropyrimidin-1-yl)-N-[(1R,2R)-2-hydroxy-2-methyl-indan-1-yl]-3-(methoxymethyl)chromane-6-carboxamide], the EC50 came to 700 pM.

As for `CCC1(CC)CC(=O)N([C@@H]2CCOc3ccc(C(=O)N[C@@H]4c5cc(C#N)ccc5OC(C)(C)[C@H]4O)cc32)C(=N)N1` [Example 20A, (R)-N-((3S,4R)-6-cyano-3-hydroxy-2,2-dimethylchroman-4-yl)-4-(4,4-diethyl-2-imino-6-oxotetrahydropyrimidin-1(2H)-yl)chromane-6-carboxamide], the EC50 was determined as 800 pM.

As for `CCC1(CC)CC(=O)N([C@@H]2CCOc3ccc(C(=O)N[C@H]4CC(C)(C)Oc5ccc(Br)cc54)cc32)C(=N)N1` [Example 14A, (R)-N-((S)-6-bromo-2,2-dimethylchroman-4-yl)-4-(4,4-diethyl-2-imino-6-oxotetrahydropyrimidin-1(2H)-yl)chromane-6-carboxamide], the EC50 was determined as 1000 pM.

With `CCC1(CC)CC(=O)N([C@@H]2CCOc3ccc(C(=O)NC4c5cc(F)ccc5C[C@H]4O)cc32)C(=N)N1` (stereo in doubt) [Example 148, (4R)-4-(4,4-diethyl-2-imino-6-oxo-hexahydropyrimidin-1-yl)-N-[(1R,2R)-6-fluoro-2-hydroxy-indan-1-yl]chromane-6-carboxamide], the EC50 was 2700 pM.

As for `CCC1(CC)CC(=O)N([C@@H]2CC3(COC3)Oc3ccc(C(=O)N[C@@H]4c5ccccc5C[C@H]4O)cc32)C(=N)N1` [Example 23A, (R)-4-(4,4-diethyl-2-imino-6-oxotetrahydropyrimidin-1(2H)-yl)-N-((1R,2R)-2-hydroxy-2,3-dihydro-1H-inden-1-yl)spiro[chromane-2,3′-oxetane]-6-carboxamide], the EC50 stood at 5000 pM.

`CCC1C[C@@H](N2C(=N)NC(CC)(CC)CC2=O)c2cc(C(=O)NC3c4ccccc4OC(C)(C)C3O)ccc2O1` (single isomer, unassigned) [Example 13A]: the EC50 was determined as 800 pM.

Consider `CCC1(CC)CC(=O)N([C@@H]2CC3(COC3)Oc3ccc(C(=O)N[C@H]4CC(C)(C)Oc5ccccc54)cc32)C(=N)N1` [Example 22A, (R)-4-(4,4-diethyl-2-imino-6-oxotetrahydropyrimidin-1(2H)-yl)-N-((S)-2,2-dimethylchroman-4-yl)spiro[chromane-2,3′-oxetane]-6-carboxamide], for which the EC50 is 700 pM.

For the compound `CCC1(CC)CC(=O)N([C@H]2c3cc(C(=O)N[C@@H]4c5ccccc5OC(C)(C)[C@H]4O)ccc3OC[C@H]2COC)C(=N)N1` [Example 298, (3R,4R)-4-(4,4-diethyl-2-imino-6-oxotetrahydropyrimidin-1(2H)-yl)-N-((3S,4R)-3-hydroxy-2,2-dimethylchroman-4-yl)-3-(methoxymethyl)chromane-6-carboxamide], the EC50 came to 500 pM.

With `CCC1(CC)CC(=O)N([C@@H]2CCOc3ccc(C(=O)N[C@H]4CC(C)(C)Oc5ccc(C#N)cc54)cc32)C(=N)N1` [Example 21A, (R)-N-((S)-6-cyano-2,2-dimethylchroman-4-yl)-4-(4,4-diethyl-2-imino-6-oxotetrahydropyrimidin-1(2H)-yl)chromane-6-carboxamide], the EC50 is 800 pM.

As for `CC[C@]1(C)CC(=O)N([C@H]2c3cc(C(=O)N[C@@H]4c5ccccc5C[C@@]4(C)O)ccc3OC[C@@H]2COC)C(=N)N1` [Example 202, (3S,4R)-4-[(4R)-4-ethyl-2-imino-4-methyl-6-oxo-hexahydropyrimidin-1-yl]-N-[(1R,2R)-2-hydroxy-2-methyl-indan-1-yl]-3-(methoxymethyl)chromane-6-carboxamide], the EC50 was found to be 800 pM.

For `CC[C@]1(C)CC(=O)N([C@@H]2C[C@@H](C)c3ccc(C(=O)N[C@@H]4c5ccccc5OC[C@@]4(C)O)cc32)C(=N)N1` [Example 131, (1R,3R)-3-[(4R)-4-ethyl-2-imino-4-methyl-6-oxo-hexahydropyrimidin-1-yl]-N-[(3S,4R)-3-hydroxy-3-methyl-chroman-4-yl]-1-methyl-indane-5-carboxamide], the EC50 is 2000 pM.

Take `CC1(C)CC(=O)N([C@@H]2CCOc3ccc(C(=O)N[C@@H]4c5ccccc5OC(C)(C)[C@@]4(C)O)cc32)C(=N)N1` [Example 172, (4R)-N-[(3S,4R)-3-hydroxy-2,2,3-trimethyl-chroman-4-yl]-4-(2-imino-4,4-dimethyl-6-oxo-hexahydropyrimidin-1-yl)chromane-6-carboxamide]: the EC50 stood at 900 pM.

Turning to `CC[C@]1(C)CC(=O)N([C@@H]2C[C@@H](C)c3ccc(C(=O)N[C@@H]4c5ccccc5OC(C)(C)[C@H]4O)cc32)C(=N)N1` [Example 171, (1R,3R)-3-[(4R)-4-ethyl-2-imino-4-methyl-6-oxo-hexahydropyrimidin-1-yl]-N-[(3S,4R)-3-hydroxy-2,2-dimethyl-chroman-4-yl]-1-methyl-indane-5-carboxamide], the EC50 is 700 pM.

Take `CCC1(CC)CC(=O)N([C@@H]2CCOc3ccc(C(=O)N[C@H]4CC(C)(C)Oc5ccccc54)nc32)C(=N)N1` [Example 31B, (R)-4-(4,4-diethyl-2-imino-6-oxotetrahydropyrimidin-1(2H)-yl)-N-((S)-2,2-dimethylchroman-4-yl)-3,4-dihydro-2H-pyrano[3,2-b]pyridine-6-carboxamide]: the EC50 is 1000 pM.

In the case of `CCC1(CC)CC(=O)N(C2c3cc(C(=O)N[C@@H]4c5ccccc5C[C@]4(C)O)ccc3OCC2OC)C(=N)N1` (stereo partly drawn) [Example 213, 4-(4,4-diethyl-2-imino-6-oxo-hexahydropyrimidin-1-yl)-N-[(1R,2S)-2-hydroxy-2-methyl-indan-1-yl]-3-methoxy-chromane-6-carboxamide], the EC50 was determined as 9000 pM.

With `CCC1(CC)CC(=O)N([C@@H]2CCOc3ccc(C(=O)N[C@@H]4c5cc(F)ccc5OC(C)(C)[C@H]4O)cc32)C(=N)N1` [Example 25A, (R)-4-(4,4-diethyl-2-imino-6-oxotetrahydropyrimidin-1(2H)-yl)-N-((3S,4R)-6-fluoro-3-hydroxy-2,2-dimethylchroman-4-yl)chromane-6-carboxamide], the EC50 is 500 pM.

Consider `CCC1(CC)CC(=O)N([C@@H]2CCOc3ccc(C(=O)N[C@@H]4c5cc(Cl)ccc5OC(C)(C)[C@H]4O)cc32)C(=N)N1` [Example 19A, (R)-N-((3S,4R)-6-chloro-3-hydroxy-2,2-dimethylchroman-4-yl)-4-(4,4-diethyl-2-imino-6-oxotetrahydropyrimidin-1(2H)-yl)chromane-6-carboxamide], for which the EC50 was found to be 300 pM.

As for `CCC1(CC)CC(=O)N([C@H]2c3cc(C(=O)N[C@@H]4c5ccccc5OC(C)(C)[C@H]4O)ccc3CC[C@@H]2OC)C(=N)N1` [Example 276, (3S,4S)-4-(4,4-diethyl-2-imino-6-oxo-hexahydropyrimidin-1-yl)-N-[(3S,4R)-3-hydroxy-2,2-dimethyl-chroman-4-yl]-3-methoxy-tetralin-6-carboxamide], the EC50 turned out to be 600 pM.

For the compound `CCC1(CC)CC(=O)N(C2CCCc3ccc(C(=O)N[C@@H]4c5ccccc5OC[C@@]4(C)O)cc32)C(=N)N1` (stereo partly drawn) [Example 161, 8-(4,4-diethyl-2-imino-6-oxotetrahydropyrimidin-1(2H)-yl)-N-((3S,4R)-3-hydroxy-3-methylchroman-4-yl)-5,6,7,8-tetrahydronaphthalene-2-carboxamide], the EC50 was 800 pM.

The same test, now with this note: parasite LDH growth assay, ring stage parasites, 72 hours incubation at 37° C.; read-out: EC50.
In the case of `CCC1(CC)CC(=O)N([C@H]2c3cc(C(=O)N[C@@H]4c5ccccc5C[C@H]4O)ccc3OCC2OC)C(=N)N1` (stereo partly drawn) [Example 72A, (3R,4S)-4-(4,4-diethyl-2-imino-6-oxotetrahydropyrimidin-1(2H)-yl)-N-((1R,2R)-2-hydroxy-2,3-dihydro-1H-inden-1-yl)-3-methoxychromane-6-carboxamide], the EC50 turned out to be 500 pM.

For `CCC1(CC)CC(=O)N([C@@H]2CC(COC)Oc3ccc(C(=O)N[C@H]4CC(C)(C)Oc5ccccc54)cc32)C(=N)N1` (stereo partly drawn) [Example 16A, (4R)-4-(4,4-diethyl-2-imino-6-oxotetrahydropyrimidin-1(2H)-yl)-N-((S)-2,2-dimethylchroman-4-yl)-2-(methoxymethyl)chromane-6-carboxamide], the EC50 is 600 pM.

For `CCC1(CC)CC(=O)N([C@@H]2CCOc3ccc(C(=O)NC4c5ccccc5OC4(C)CO)cc32)C(=N)N1` (stereo partly drawn) [Example 176B, (4R)-4-(4,4-diethyl-2-imino-6-oxo-hexahydropyrimidin-1-yl)-N-[2-(hydroxymethyl)-2-methyl-3H-benzofuran-3-yl]chromane-6-carboxamide], the EC50 turned out to be 7800 pM.

(Values after patent US20230355622A1, “METHODS OF CHEMOVACCINATION AGAINST PLASMODIUM INFECTIONS” (Merck Sharp & Dohme LLC, priority 2020, published 2023).)
